SMILES strings stand for the structures.

Assay [1] has as its target T1, wild type LRRK2 overexpressed in recombinant HEK-293T cells (Homo sapiens, UniProt Q5S007).
T1 construct: host or cells: HEK293T (transient transfection with pCMV-LRRK2 WT plasmid)
As to the kind of experiment: pS935 LRRK2 Cell Assay (HTRF, phospho-LRRK2 Ser935). As to conditions: LRRK2 Inhibition, Table 8, 2 hours compound incubation. It counts as cell-based. In outline:
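Phospho-Ser935 LRRK2 measured by two-antibody HTRF (Eu-cryptate donor, d2 acceptor; 665/615 nm ratio) after overnight detection at 23° C. Before lysis, transiently LRRK2-transfected HEK-293T cells were exposed 2 h at 37° C to a 9-point, 3-fold series from 10 μM, with DMSO at 0.2%.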

Assay [2] addresses LRRK2 wild type enzyme (Homo sapiens, UniProt Q5S007). As to the kind of experiment: Biochemical Assay: LRRK2 TR-FRET (LanthaScreen) kinase assay with LRRKtide substrate. As to conditions: LRRK2 Inhibition, Table 8. In outline: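 TR-FRET detection (Tb-labelled phospho-LRRKtide antibody, EDTA stop, 30 min) followed a 120 min, 23 °C reaction of 3 nM wild-type human LRRK2 with LRRKtide (400 nM) and ATP (25 μM) in Tris pH 8.0. Compounds: 11-point 3-fold series from 10 μM, 15 min enzyme preincubation.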

T1 sequence (Q5S007 whole entry): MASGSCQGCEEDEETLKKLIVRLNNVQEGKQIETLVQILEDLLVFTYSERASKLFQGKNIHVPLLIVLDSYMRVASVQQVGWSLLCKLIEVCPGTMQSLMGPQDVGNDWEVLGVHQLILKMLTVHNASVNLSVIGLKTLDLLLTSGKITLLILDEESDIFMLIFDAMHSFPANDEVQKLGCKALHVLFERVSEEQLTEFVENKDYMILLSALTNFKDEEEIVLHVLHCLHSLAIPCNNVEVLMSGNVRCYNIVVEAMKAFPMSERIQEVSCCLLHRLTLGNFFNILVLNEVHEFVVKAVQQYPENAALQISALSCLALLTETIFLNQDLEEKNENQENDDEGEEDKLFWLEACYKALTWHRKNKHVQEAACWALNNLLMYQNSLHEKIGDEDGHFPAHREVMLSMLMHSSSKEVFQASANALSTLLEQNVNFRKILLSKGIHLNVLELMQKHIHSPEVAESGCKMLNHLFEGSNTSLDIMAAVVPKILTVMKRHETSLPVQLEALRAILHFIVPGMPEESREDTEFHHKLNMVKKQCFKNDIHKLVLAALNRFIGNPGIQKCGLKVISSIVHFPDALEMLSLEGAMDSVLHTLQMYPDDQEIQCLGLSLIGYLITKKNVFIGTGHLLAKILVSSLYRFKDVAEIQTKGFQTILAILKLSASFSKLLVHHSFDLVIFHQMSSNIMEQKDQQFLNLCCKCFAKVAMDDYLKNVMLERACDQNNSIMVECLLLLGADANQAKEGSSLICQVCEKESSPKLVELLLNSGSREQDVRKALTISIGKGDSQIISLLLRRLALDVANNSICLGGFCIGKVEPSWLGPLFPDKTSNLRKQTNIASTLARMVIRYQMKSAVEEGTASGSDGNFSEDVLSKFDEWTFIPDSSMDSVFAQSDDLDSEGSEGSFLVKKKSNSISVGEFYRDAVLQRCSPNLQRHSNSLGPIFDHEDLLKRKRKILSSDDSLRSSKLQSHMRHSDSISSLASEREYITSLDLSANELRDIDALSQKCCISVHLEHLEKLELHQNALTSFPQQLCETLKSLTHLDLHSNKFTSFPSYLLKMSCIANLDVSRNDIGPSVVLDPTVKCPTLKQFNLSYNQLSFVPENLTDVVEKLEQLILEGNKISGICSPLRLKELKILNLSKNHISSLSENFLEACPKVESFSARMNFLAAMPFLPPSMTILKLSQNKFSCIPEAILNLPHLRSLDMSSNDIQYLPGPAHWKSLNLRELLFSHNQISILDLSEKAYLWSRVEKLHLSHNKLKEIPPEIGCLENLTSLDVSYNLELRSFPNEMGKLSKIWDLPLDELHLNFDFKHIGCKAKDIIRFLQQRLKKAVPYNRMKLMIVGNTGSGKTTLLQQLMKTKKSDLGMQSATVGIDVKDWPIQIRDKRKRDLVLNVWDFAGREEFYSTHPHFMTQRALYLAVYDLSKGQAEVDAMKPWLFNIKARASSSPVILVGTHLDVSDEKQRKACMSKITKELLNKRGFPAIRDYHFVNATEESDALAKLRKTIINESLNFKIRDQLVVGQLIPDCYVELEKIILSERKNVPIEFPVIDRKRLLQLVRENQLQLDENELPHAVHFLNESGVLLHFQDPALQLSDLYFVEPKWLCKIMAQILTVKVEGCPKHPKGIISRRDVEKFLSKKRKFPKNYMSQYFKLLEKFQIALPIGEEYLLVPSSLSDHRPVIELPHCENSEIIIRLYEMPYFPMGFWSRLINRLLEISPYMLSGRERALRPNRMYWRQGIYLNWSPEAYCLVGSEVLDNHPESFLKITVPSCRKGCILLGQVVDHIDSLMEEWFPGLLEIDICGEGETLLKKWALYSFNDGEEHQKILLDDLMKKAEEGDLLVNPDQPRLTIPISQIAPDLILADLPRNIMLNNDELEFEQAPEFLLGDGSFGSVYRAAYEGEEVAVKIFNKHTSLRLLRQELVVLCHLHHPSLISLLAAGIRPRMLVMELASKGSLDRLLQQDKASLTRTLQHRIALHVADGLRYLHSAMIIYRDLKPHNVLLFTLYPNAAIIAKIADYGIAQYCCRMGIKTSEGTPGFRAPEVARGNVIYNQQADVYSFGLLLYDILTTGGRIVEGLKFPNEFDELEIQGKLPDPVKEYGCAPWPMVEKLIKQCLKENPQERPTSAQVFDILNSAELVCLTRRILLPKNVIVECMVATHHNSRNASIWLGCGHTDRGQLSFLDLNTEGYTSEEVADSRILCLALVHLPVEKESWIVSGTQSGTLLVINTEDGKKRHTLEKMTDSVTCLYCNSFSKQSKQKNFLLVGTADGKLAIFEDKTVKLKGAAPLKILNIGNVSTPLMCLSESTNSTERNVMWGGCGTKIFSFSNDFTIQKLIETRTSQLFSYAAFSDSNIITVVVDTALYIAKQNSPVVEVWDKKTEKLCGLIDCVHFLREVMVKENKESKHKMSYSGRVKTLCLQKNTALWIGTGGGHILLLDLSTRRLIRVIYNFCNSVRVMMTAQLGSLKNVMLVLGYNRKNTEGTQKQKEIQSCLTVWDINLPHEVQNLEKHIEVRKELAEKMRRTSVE
Sequence of LRRK2 wild type enzyme (Q5S007 whole entry): as above

In the case of `C[C@@H]1C[C@H](n2c(CC(=O)Nc3cccnc3Cl)nc3cnc4ccc(C#N)cc4c32)CCO1` [Compound 324, N-(2-chloro-3-pyridyl){3-[(2R,4R)-2-methyltetrahydro-2H-pyran-4-yl]-12-cyano-3,5,8-triazatricyclo[7.4.0.0^2,6]trideca-1(9),2(6),4,7,10,12-hexaen-4-yl}acetamide], the IC50 was determined as 3.16 nM in assay [1] and 0.536 nM in assay [2].
As to `Cc1ccc(NC(=O)Cc2nc3cnc4ccc(C#N)cc4c3n2[C@@H]2CCO[C@H](C)C2)cn1` [Compound 319, N-(6-methyl-3-pyridyl){3-[(2R,4R)-2-methyltetrahydro-2H-pyran-4-yl]-12-cyano-3,5,8-triazatricyclo[7.4.0.0^2,6]trideca-1(9),2(6),4,7,10,12-hexaen-4-yl}acetamide], the results for the half-inhibitory concentration (IC50) in assay [1] and in assay [2] were 5.93 nM and 0.542 nM, respectively.
Regarding `C[C@@H]1C[C@H](n2c(CC(=O)NCc3ccncc3)nc3cnc4ccc(C#N)cc4c32)CCO1` [Compound 15, 2-{8-cyano-1-[(2R,4R)-2-methyloxan-4-yl]-1H-imidazo[4,5-c]quinolin-2-yl}-N-[(pyridin-4-yl)methyl]acetamide], the IC50 in assay [1] was determined as 15.8 nM; in assay [2], 0.294 nM.
For the compound `CC(=O)N1CCC(c2nc3cnc4ccc(C#N)cc4c3n2[C@@H]2CCO[C@H](C)C2)CC1` [Compound 116, 2-(1-acetylpiperidin-4-yl)-1-[(2R,4R)-2-methyloxan-4-yl]-1H-imidazo[4,5-c]quinoline-8-carbonitrile], the half-inhibitory concentration (IC50) was found to be 343 nM in assay [1] and 1.26 nM in assay [2].
With `COc1cc(F)ncc1NC(=O)Cc1nc2cnc3ccc(C#N)cc3c2n1[C@@H]1CCO[C@H](C)C1` [Compound 230, N-(6-fluoro-4-methoxy-3-pyridyl){3-[(2R,4R)-2-methyltetrahydro-2H-pyran-4-yl]-12-cyano-3,5,8-triazatricyclo[7.4.0.0^2,6]trideca-1,4,6,8,10,12-hexaen-4-yl}acetamide], the IC50 in assay [1] came out at 4.9 nM; in assay [2] it was 0.442 nM.
Regarding `C[C@@H]1C[C@H](n2c([C@@H]3CCN(S(=O)(=O)C4CC4)C3)nc3cnc4ccc(C#N)cc4c32)CCO1` [Compound 24, 2-[(3R)-1-(cyclopropanesulfonyl)pyrrolidin-3-yl]-1-[(2R,4R)-2-methyloxan-4-yl]-1H-imidazo[4,5-c]quinoline-8-carbonitrile], the results for the IC50 in assay [1] and in assay [2] were 677 nM and 5.4 nM, respectively.
On the same counts, the results for `C[C@@H]1C[C@H](n2c(CC(=O)NCC3CC3)nc3cnc4ccc(Cl)cc4c32)CCO1` [Compound 107, 2-{8-chloro-1-[(2R,4R)-2-methyloxan-4-yl]-1H-imidazo[4,5-c]quinolin-2-yl}-N-(cyclopropylmethyl)acetamide] are 10.9 nM and 0.354 nM.
On the same counts, the results for `C[C@@H]1C[C@H](n2c(CC(=O)N[C@H]3C[C@H]3F)nc3cnc4ccc(C#N)cc4c32)CCO1` [Compound 289, N-[(1S,2R)-2-fluorocyclopropyl]{3-[(2R,4R)-2-methyltetrahydro-2H-pyran-4-yl]-12-cyano-3,5,8-triazatricyclo[7.4.0.0^2,6]trideca-1,4,6,8,10,12-hexaen-4-yl}acetamide] are 54.5 nM and 0.692 nM.
For the compound `C[C@@H]1C[C@H](n2c(C3CC(=O)N(C)C3)nc3cnc4ccc(C#N)cc4c32)CCO1` (mixture of isomers) [Compound 53, 2-[(3RS)-1-methyl-5-oxopyrrolidin-3-yl]-1-[(2R,4R)-2-methyloxan-4-yl]-1H-imidazo[4,5-c]quinoline-8-carbonitrile], the IC50 in assay [1] was 666 nM; in assay [2], 3.16 nM.
On the same counts, the results for `COc1ccnc(C)c1NC(=O)Cc1nc2cnc3ccc(C#N)cc3c2n1[C@@H]1CCO[C@H](C)C1` [Compound 227, N-(4-methoxy-2-methyl-3-pyridyl){3-[(2R,4R)-2-methyltetrahydro-2H-pyran-4-yl]-12-cyano-3,5,8-triazatricyclo[7.4.0.0^2,6]trideca-1,4,6,8,10,12-hexaen-4-yl}acetamide] are 14.4 nM and 0.359 nM.

Source of the values: patent publication US20250270209A1 (INTERLINE THERAPEUTICS, INC., priority 2022, published 2025).
